Data from patent publication US20240066027A1 (DOMAIN THERAPEUTICS, priority 2020, published 2024).

Molecular target: T1, human PAR-2 (hPAR-2) receptor expressed in HEK-293 T cells in an endogenous manner (Homo sapiens, UniProt P55085)
T1 construct: human PAR-2 (hPAR-2) receptor expressed in HEK-293 T cells in an endogenous manner; endogenous in cells; host or cells: HEK-293 T cells
T1 sequence (P55085 26-397): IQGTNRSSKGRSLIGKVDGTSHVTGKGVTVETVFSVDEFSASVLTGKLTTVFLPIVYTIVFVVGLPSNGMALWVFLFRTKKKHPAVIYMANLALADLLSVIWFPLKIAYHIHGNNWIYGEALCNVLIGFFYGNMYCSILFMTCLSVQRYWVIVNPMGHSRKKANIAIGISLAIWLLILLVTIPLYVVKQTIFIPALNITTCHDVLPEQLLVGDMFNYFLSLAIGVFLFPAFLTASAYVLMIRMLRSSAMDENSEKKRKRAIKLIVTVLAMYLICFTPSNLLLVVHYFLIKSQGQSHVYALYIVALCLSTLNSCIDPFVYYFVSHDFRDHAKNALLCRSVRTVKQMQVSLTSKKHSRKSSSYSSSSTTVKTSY
Assay: In vitro human PAR-2 functional antagonist activity using calcium assays (Fluo4AM, FLIPR Tetra)
Format: cell-based
Settings: HEK-293 T cells stimulated by an EC80 of the 2-Furoyl-LIGRLO-NH2 peptide after 10 min incubation with compound; 20 concentrations, duplicate, two independent experiments
How it was run: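 Fluo4AM-loaded HEK-293 T cells were exposed to compound for 10 min to read agonist effect. They were then stimulated with an EC80 of 2-Furoyl-LIGRLO-NH2 and intracellular calcium was recorded for 5 more min on FLIPR. Antagonism was scored against buffer basal and EC80 agonist-alone signals.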

| Structure (SMILES) | IC50 |
| --- | --- |
| Cc1cc(N2C[C@@H]3C[C@H]2CN3C(=O)c2ccc3c(-c4ccc(Cl)c(F)c4)cn(C(C)(C)C)c3n2)nc(C)c1C(=O)O [Example 148, 6-((1S,4S)-5-(1-(tert-butyl)-3-(4-chloro-3-fluorophenyl)-1H-pyrrolo[2,3-b]pyridine-6-carbonyl)-2,5-diazabicyclo[2.2.1]heptan-2-yl)-2,4-dimethyinicotinic acid] | 0.02 to 10 µM |
| Cc1cc(N2CCN(C(=O)c3ccc4c(-c5ccc(Cl)c(F)c5)cn(Cc5ccncc5)c4n3)C(C)(C)C2)nc(C)c1C(=O)O [Example 149, 6-(4-(3-(4-chloro-3-fluorophenyl)-1-(pyridin-4-ylmethyl)-1H-pyrrolo[2,3-b]pyridine-6-carbonyl)-3,3-dimethylpiperazin-1-yl)-2,4-dimethylnicotinic acid] | 0.02 to 10 µM |
| COCC(C)(C)n1cc(-c2ccc(Cl)c(F)c2)c2ccc(C(=O)N3CCNC(=O)C3(C)C)nc21 [Example 151, 4-(3-(4-chloro-3-fluorophenyl)-1-(1-methoxy-2-methylpropan-2-yl)-1H-pyrrolo[2,3-b]pyridine-6-carbonyl)-3,3-dimethylpiperazin-2-one] | < 0.02 µM |
| COCC(C)(C)n1cc(-c2ccc(Cl)c(F)c2)c2ccc(C(=O)N3CCN(c4cc(C)c(C(=O)O)c(C)n4)CC3(C)C)nc21 [Example 152, 6-(4-(3-(4-chloro-3-fluorophenyl)-1-(1-methoxy-2-methylpropan-2-yl)-1H-pyrrolo[2,3-b]pyridine-6-carbonyl)-3,3-dimethylpiperazin-1-yl)-2,4-dimethylnicotinic acid] | < 0.02 µM |
| Cc1cc(N[C@@H]2CCN(C(=O)c3ccc4c(-c5ccc(Cl)c(F)c5)cn(C(C)(C)C)c4n3)C2)nc(C)c1C(=O)O [Example 153, (R)-6-((1-(1-(tert-butyl)-3-(4-chloro-3-fluorophenyl)-1H-pyrrolo[2,3-b]pyridine-6-carbonyl)pyrrolidin-3-yl)amino)-2,4-dimethylnicotinic acid] | > 10 µM |
| Cc1cc(N[C@H]2CCN(C(=O)c3ccc4c(-c5ccc(Cl)c(F)c5)cn(C(C)(C)C)c4n3)C2)nc(C)c1C(=O)O [Example 154, (S)-6-((1-(1-(tert-butyl)-3-(4-chloro-3-fluorophenyl)-1H-pyrrolo[2,3-b]pyridine-6-carbonyl)pyrrolidin-3-yl)amino)-2,4-dimethylnicotinic acid] | > 10 µM |
| Cc1cc(N(C)[C@@H]2CCN(C(=O)c3ccc4c(-c5ccc(Cl)c(F)c5)cn(C(C)(C)C)c4n3)C2)nc(C)c1C(=O)O [Example 155, (R)-6-((1-(1-(tert-butyl)-3-(4-chloro-3-fluorophenyl)-1H-pyrrolo[2,3-b]pyridine-6-carbonyl)pyrrolidin-3-yl)(methyl)amino)-2,4-dimethylnicotinic acid] | 0.02 to 10 µM |
| Cc1cc(N(C)[C@H]2CCN(C(=O)c3ccc4c(-c5ccc(Cl)c(F)c5)cn(C(C)(C)C)c4n3)C2)nc(C)c1C(=O)O [Example 156, (S)-6-((1-(1-(tert-butyl)-3-(4-chloro-3-fluorophenyl)-1H-pyrrolo[2,3-b]pyridine-6-carbonyl)pyrrolidin-3-yl)(methyl)amino)-2,4-dimethylnicotinic acid] | 0.02 to 10 µM |
| Cc1cc(N2CCN(C(=O)c3ccc4c(-c5ccc(Cl)c(F)c5)cn(C(C)(C)C)c4n3)CC2CO)nc(C)c1C(=O)O (stereo not drawn) [Example 157, 6-(4-(1-(tert-butyl)-3-(4-chloro-3-fluorophenyl)-1H-pyrrolo[2,3-b]pyridine-6-carbonyl)-2-(hydroxymethyl)piperazin-1-yl)-2,4-dimethylnicotinic acid] | 0.02 to 10 µM |
| Cc1cc(N2CCN(C(=O)c3ccc4c(-c5ccc(Cl)c(F)c5)cn(Cc5ncccn5)c4n3)C(C)(C)C2)nc(C)c1C(=O)O [Example 158, 6-(4-(3-(4-chloro-3-fluorophenyl)-1-(pyrimidin-2-ylmethyl)-1H-pyrrolo[2,3-b]pyridine-6-carbonyl)-3,3-dimethylpiperazin-1-yl)-2,4-dimethylnicotinic acid] | 0.02 to 10 µM |
| Cc1nc(Cn2cc(-c3ccc(Cl)c(F)c3)c3ccc(C(=O)N4CCN(c5cc(C)c(C(=O)O)c(C)n5)CC4(C)C)nc32)c(C)o1 [Example 159, 6-(4-(3-(4-chloro-3-fluorophenyl)-1-((2,5-dimethyloxazol-4-yl)methyl)-1H-pyrrolo[2,3-b]pyridine-6-carbonyl)-3,3-dimethylpiperazin-1-yl)-2,4-dimethylnicotinic acid] | 0.02 to 10 µM |
| Cc1cc(N2CCN(C(=O)c3ccc4c(-c5ccc(Cl)c(F)c5)cn(CC5CC5)c4n3)C(C)(C)C2)nc(C)c1C(=O)O [Example 160, 6-(4-(3-(4-chloro-3-fluorophenyl)-1-(cyclopropylmethyl)-1H-pyrrolo[2,3-b]pyridine-6-carbonyl)-3,3-dimethylpiperazin-1-yl)-2,4-dimethylnicotinic acid] | < 0.02 µM |
| COc1cccc(Cn2cc(-c3ccc(Cl)c(F)c3)c3ccc(C(=O)N4CCN(c5cc(C)c(C(=O)O)c(C)n5)CC4(C)C)nc32)n1 [Example 161, 6-(4-(3-(4-chloro-3-fluorophenyl)-1-((6-methoxypyridin-2-yl)methyl)-1H-pyrrolo[2,3-b]pyridine-6-carbonyl)-3,3-dimethylpiperazin-1-yl)-2,4-dimethylnicotinic acid] | < 0.02 µM |
| CC(C)(C)n1cc(-c2ccc(Cl)c(F)c2)c2ccc(C(=O)N3CCC(C(=O)O)CC3)nc21 [Example 162, 1-(1-(tert-butyl)-3-(4-chloro-3-fluorophenyl)-1H-pyrrolo[2,3-b]pyridine-6-carbonyl)piperidine-4-carboxylic acid] | 0.02 to 10 µM |
| CC(C)(C)n1cc(-c2ccc(Cl)c(F)c2)c2ccc(C(=O)N3CCC(CC(N)=O)CC3)nc21 [Example 163, 2-(1-(1-(tert-butyl)-3-(4-chloro-3-fluorophenyl)-1H-pyrrolo[2,3-b]pyridine-6-carbonyl)piperidin-4-yl)acetamide] | 0.02 to 10 µM |
| CN(C)C(=O)CC1CCN(C(=O)c2ccc3c(-c4ccc(Cl)c(F)c4)cn(C(C)(C)C)c3n2)CC1 [Example 164, 2-(1-(1-(tert-butyl)-3-(4-chloro-3-fluorophenyl)-1H-pyrrolo[2,3-b]pyridine-6-carbonyl)piperidin-4-yl)-N,N-dimethylacetamide] | 0.02 to 10 µM |
| CC[C@@H](C)n1cc(-c2ccc(Cl)c(F)c2)c2ccc(C(=O)N3CCN(c4cc(C)c(C(=O)O)c(C)n4)CC3(C)C)nc21 [Example 165, (R)-6-(4-(1-(sec-butyl)-3-(4-chloro-3-fluorophenyl)-1H-pyrrolo[2,3-b]pyridine-6-carbonyl)-3,3-dimethylpiperazin-1-yl)-2,4-dimethylnicotinic acid] | < 0.02 µM |

Continued, values first:

| IC50 | Structure (SMILES) |
| --- | --- |
| < 0.02 µM | COCC(COC)n1cc(-c2ccc(Cl)c(F)c2)c2ccc(C(=O)N3CCN(c4cc(C)c(C(=O)O)c(C)n4)CC3(C)C)nc21 [Example 166, 6-(4-(3-(4-chloro-3-fluorophenyl)-1-(1,3-dimethoxypropan-2-yl)-1H-pyrrolo[2,3-b]pyridine-6-carbonyl)-3,3-dimethylpiperazin-1-yl)-2,4-dimethylnicotinic acid] |
| 0.02 to 10 µM | Cc1cc(C2=CCN(C(=O)c3ccc4c(-c5ccc(Cl)c(F)c5)cn(C(C)(C)C)c4n3)CC2)nc(C)c1C(=O)O [Example 167, 1′-(1-(tert-butyl)-3-(4-chloro-3-fluorophenyl)-1H-pyrrolo[2,3-b]pyridine-6-carbonyl)-4,6-dimethyl-1′,2′,3′,6′-tetrahydro-[2,4′-bipyridine]-5-carboxylic acid] |
| 0.02 to 10 µM | Cc1cc(C2CCN(C(=O)c3ccc4c(-c5ccc(Cl)c(F)c5)cn(C(C)(C)C)c4n3)CC2)nc(C)c1C(=O)O [Example 168, 6-(1-(1-(tert-butyl)-3-(4-chloro-3-fluorophenyl)-1H-pyrrolo[2,3-b]pyridine-6-carbonyl)piperidin-4-yl)-2,4-dimethylnicotinic acid] |
| 0.02 to 10 µM | CC1(C)CN(C(=O)c2ccc(C(=O)O)cn2)CCN1C(=O)c1ccc2c(-c3ccc(Cl)c(F)c3)cn(C(C)(C)C)c2n1 [Example 169, 6-(4-(1-(tert-butyl)-3-(4-chloro-3-fluorophenyl)-1H-pyrrolo[2,3-b]pyridine-6-carbonyl)-3,3-dimethylpiperazine-1-carbonyl)nicotinic acid] |
| 0.02 to 10 µM | Cc1cc(N2CCN(C(=O)c3ccc4c(-c5ccc(C(F)(F)F)nc5)cn(CC(C)C)c4n3)C(C)(C)C2)nc(C)c1C(=O)O [Example 170, 6-(4-(1-isobutyl-3-(6-(trifluoromethyl)pyridin-3-yl)-1H-pyrrolo[2,3-b]pyridine-6-carbonyl)-3,3-dimethylpiperazin-1-yl)-2,4-dimethylnicotinic acid] |
| < 0.02 µM | Cc1cc(N2CCN(C(=O)c3ccc4c(-c5ccc(Cl)c(F)c5)cn(CC5CCC5)c4n3)C(C)(C)C2)nc(C)c1C(=O)O [Example 171, 6-(4-(3-(4-chloro-3-fluorophenyl)-1-(cyclobutylmethyl)-1H-pyrrolo[2,3-b]pyridine-6-carbonyl)-3,3-dimethylpiperazin-1-yl)-2,4-dimethylnicotinic acid] |
| < 0.02 µM | CC[C@H](C)n1cc(-c2ccc(Cl)c(F)c2)c2ccc(C(=O)N3CCN(c4cc(C)c(C(=O)O)c(C)n4)CC3(C)C)nc21 [Example 172, (S)-6-(4-(1-(sec-butyl)-3-(4-chloro-3-fluorophenyl)-1H-pyrrolo[2,3-b]pyridine-6-carbonyl)-3,3-dimethylpiperazin-1-yl)-2,4-dimethylnicotinic acid] |
